Assays:
[1] = target: T1, mGlu5 (Homo sapiens, UniProt P41594); test: standard mGlu5 calcium mobilization functional assay, human mGlu5; assay type: cell-based; settings: for EC50: EC50 (PAM)
[2] = target: T1, mGlu5; test: standard mGlu5 calcium mobilization functional assay, PAM and NAM modes; assay type: cell-based
[3] = target: T1, mGlu5; settings: Figure 1 ref 14; cited from earlier work
[4] = human mGlu5 assay, synthetic material

T1 sequence (P41594 21-1212): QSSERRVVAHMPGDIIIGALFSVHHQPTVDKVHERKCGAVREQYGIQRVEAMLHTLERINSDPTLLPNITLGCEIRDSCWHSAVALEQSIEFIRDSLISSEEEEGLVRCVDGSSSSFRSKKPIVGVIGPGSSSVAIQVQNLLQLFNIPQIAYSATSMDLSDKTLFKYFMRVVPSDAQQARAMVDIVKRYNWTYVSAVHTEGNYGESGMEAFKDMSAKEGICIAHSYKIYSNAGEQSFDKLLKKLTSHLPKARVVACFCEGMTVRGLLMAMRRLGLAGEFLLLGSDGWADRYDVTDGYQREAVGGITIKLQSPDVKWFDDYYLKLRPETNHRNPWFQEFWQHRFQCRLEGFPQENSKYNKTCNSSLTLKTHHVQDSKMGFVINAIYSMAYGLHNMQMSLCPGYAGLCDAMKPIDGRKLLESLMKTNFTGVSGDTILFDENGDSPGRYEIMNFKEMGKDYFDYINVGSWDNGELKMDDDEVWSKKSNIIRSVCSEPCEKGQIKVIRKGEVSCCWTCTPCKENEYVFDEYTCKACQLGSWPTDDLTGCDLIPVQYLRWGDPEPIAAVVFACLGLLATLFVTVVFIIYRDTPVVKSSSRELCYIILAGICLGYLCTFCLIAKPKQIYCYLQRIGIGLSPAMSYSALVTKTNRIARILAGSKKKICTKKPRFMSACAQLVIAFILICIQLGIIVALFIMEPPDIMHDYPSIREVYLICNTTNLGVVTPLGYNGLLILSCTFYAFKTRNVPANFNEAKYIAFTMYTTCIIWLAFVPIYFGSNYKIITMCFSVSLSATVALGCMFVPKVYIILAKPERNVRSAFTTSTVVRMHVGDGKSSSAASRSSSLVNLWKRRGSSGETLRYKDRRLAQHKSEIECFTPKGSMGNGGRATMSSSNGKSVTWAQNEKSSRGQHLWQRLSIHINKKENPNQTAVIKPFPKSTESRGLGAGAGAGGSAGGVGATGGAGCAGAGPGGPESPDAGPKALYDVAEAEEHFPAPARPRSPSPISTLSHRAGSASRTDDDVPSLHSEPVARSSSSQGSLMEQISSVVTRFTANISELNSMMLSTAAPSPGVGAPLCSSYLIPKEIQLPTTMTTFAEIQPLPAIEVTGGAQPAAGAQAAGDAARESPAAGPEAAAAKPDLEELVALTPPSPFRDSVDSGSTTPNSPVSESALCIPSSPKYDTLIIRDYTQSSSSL

With NC(=O)c1ccc(C#Cc2cccc(F)c2)cn1 [M4, 5-((3-Fluorophenyl)ethynyl)picolinamide] the EC50 ([1]; kit-produced M4, human mGlu5 assay, material from the BMO production kit) was 510 nM, the EC50 ([1]; synthetic-derived M4, human mGlu5 assay, synthetic material) was 315 nM and the “% Glu Max, kit-produced M4” value ([1]; human mGlu5 assay, material from the BMO production kit) was 75 % Glu Max. For the same compound, the “% Glu Max, synthetic-derived M4” value [1, 4] was 77% and the “agonism (no agonism noted up to), synthetic-derived M4” value [1, 4] was over 30 µM.

In the case of O=C(c1ccc(C(=O)NC2CCC2)nc1)c1cccc(F)c1 [M6, N-Cyclobutyl-5-(3-fluorobenzoyl)picolinamide], the “activity in NAM mode” value [2] is reported as “inactive” and the “activity in PAM mode” value [2] is reported as “inactive”.

In the case of O=C(O)c1ccc(C#Cc2cccc(F)c2)cn1 [compound 3, 5-((3-Fluorophenyl)ethynyl)picolinic Acid], the “activity of metabolite M2, the product of amide hydrolysis” value [3] is listed as “inactive”.

With O=C(C(=O)c1cccc(F)c1)c1ccc(C(=O)NC2CCC2)nc1 [M5, N-Cyclobutyl-5-(2-(3-fluorophenyl)-2-oxoacetyl)picolinamide] the “activity in NAM mode” value [2] was “inactive” and the “activity in PAM mode” value [2] was “inactive”.

Reference: publication PMC6690571 (ACS Omega, 2019)
